{"source": "patent US9593136B2", "about": "(priority 2011, dated 2017)", "key": {"[1]": {"test_system": "Mtb H37Rv (ATCC 27294)", "assay": "microbe, parasite or virus in culture", "assay_type": "cell-based, Mycobacterium tuberculosis", "settings": "Mycobacterium tuberculosis"}, "[2]": {"biological_target": "M. tuberculosis Dxr (Mycobacterium tuberculosis, UniProt P9WNS1)", "sequence (P9WNS1 whole entry, looked up)": "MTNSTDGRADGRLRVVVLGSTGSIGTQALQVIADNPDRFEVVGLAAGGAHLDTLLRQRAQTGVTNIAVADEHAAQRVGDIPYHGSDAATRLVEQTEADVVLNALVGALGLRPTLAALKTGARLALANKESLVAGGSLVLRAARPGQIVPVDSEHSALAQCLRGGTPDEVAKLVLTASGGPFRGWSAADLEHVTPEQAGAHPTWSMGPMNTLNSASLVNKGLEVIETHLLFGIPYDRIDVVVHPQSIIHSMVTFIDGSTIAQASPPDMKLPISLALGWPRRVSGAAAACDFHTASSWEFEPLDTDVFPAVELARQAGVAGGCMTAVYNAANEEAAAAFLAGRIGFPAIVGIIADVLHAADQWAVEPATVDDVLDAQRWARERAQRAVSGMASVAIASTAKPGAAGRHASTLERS", "assay": "biochemical"}, "[3]": {"settings": "read-out: Mtb MIC (ug/mL) (7H9)"}, "[4]": {"settings": "read-out: Mtb MIC (ug/mL) (GAST)"}}, "note": "Where two headings read alike, the source gives them in different places.", "data": [{"compound": "CC(=O)N(CCCP(=O)(O)O)OCc1ccc(C(C)C)cc1", "note": "[GSJ76]", "values": [{"measurement": "MIC", "setting": "[1]; [3]", "value": 200, "unit": "µg/mL"}, {"measurement": "MIC", "setting": "[1]; [4]", "value": 25, "unit": "µg/mL"}, {"measurement": "IC50", "setting": "[2]; Mtb Dxr IC50 (ug/mL)", "value": 54, "unit": "µM"}]}, {"compound": "CC(=O)N(CCCP(=O)(O)O)OCc1ccc2ccccc2c1", "note": "[GSJ77]", "values": [{"measurement": "MIC", "setting": "[1]; read-out: Mtb MIC (ug/mL)", "value": "≥ 200", "unit": "µg/mL"}, {"measurement": "IC50", "setting": "[2]; Mtb Dxr IC50 (ug/mL)", "value": 47.7, "unit": "µM"}]}, {"compound": "CC(=O)N(CCCP(=O)(O)O)OCCc1ccccc1", "note": "[GSJ78]", "values": [{"measurement": "MIC", "setting": "[1]; read-out: Mtb MIC (ug/mL)", "value": "> 200", "unit": "µg/mL"}, {"measurement": "IC50", "setting": "[2]; Mtb Dxr IC50 (ug/mL)", "value": 103, "unit": "µM"}]}, {"compound": "CCOP(=O)(CCCN(OCCc1ccc(O)cc1)C(C)=O)OCC", "note": "[GSJ80]", "values": [{"measurement": "MIC", "setting": "[1]; read-out: Mtb MIC (ug/mL)", "value": "200 to 400", "unit": "µg/mL"}]}, {"compound": "CCOP(=O)(CCCN(OCCc1ccc(C)cc1)C(C)=O)OCC", "note": "[GSJ82]", "values": [{"measurement": "MIC", "setting": "[1]; [3]", "value": "≥ 400", "unit": "µg/mL"}]}, {"compound": "CC(=O)N(CCCP(=O)(OCOC(=O)C(C)(C)C)OCOC(=O)C(C)(C)C)OCCCCc1ccccc1", "note": "[GSJ89]", "values": [{"measurement": "MIC", "setting": "[1]; [3]", "value": 12.5, "unit": "µg/mL"}, {"measurement": "MIC", "setting": "[1]; [4]", "value": "6.25 to 12.5", "unit": "µg/mL"}]}, {"compound": "CC(=O)N(CCCP(=O)(OCOC(=O)c1ccccc1)OCOC(=O)c1ccccc1)OCCCCc1ccccc1", "note": "[GSJ92]", "values": [{"measurement": "MIC", "setting": "[1]; [3]", "value": 25, "unit": "µg/mL"}]}, {"compound": "CC(=O)N(CCCP(=O)(OCOC(=O)C(C)(C)C)OCOC(=O)C(C)(C)C)OCc1ccc(C(C)C)cc1", "note": "[GSJ96]", "values": [{"measurement": "MIC", "setting": "[1]; read-out: Mtb MIC (ug/mL)", "value": 12.5, "unit": "µg/mL"}]}, {"compound": "CC(=O)N(CCCP(=O)(OCOC(=O)C(C)(C)C)OCOC(=O)C(C)(C)C)OCc1ccc(-c2ccccc2)cc1", "note": "[GSJ97]", "values": [{"measurement": "MIC", "setting": "[1]; read-out: Mtb MIC (ug/mL)", "value": 12.5, "unit": "µg/mL"}]}, {"compound": "CCOP(=O)(CCCN(OCc1cccc(-c2ccccc2)c1)C(C)=O)OCC", "note": "[GSJ100]", "values": [{"measurement": "MIC", "setting": "[1]; read-out: Mtb MIC (ug/mL)", "value": 100, "unit": "µg/mL"}]}, {"compound": "CCOP(=O)(CCCN(OCc1ccccc1-c1ccccc1)C(C)=O)OCC", "note": "[GSJ101]", "values": [{"measurement": "MIC", "setting": "[1]; read-out: Mtb MIC (ug/mL)", "value": "200 to 400", "unit": "µg/mL"}]}, {"compound": "CCOP(=O)(CCCN(OCc1ccc(Cl)c(Cl)c1)C(C)=O)OCC", "note": "[GSJ102]", "values": [{"measurement": "MIC", "setting": "[1]; read-out: Mtb MIC (ug/mL)", "value": 200, "unit": "µg/mL"}]}, {"compound": "CCOP(=O)(CCCN(OCc1cccc(OC(F)(F)F)c1)C(C)=O)OCC", "note": "[GSJ109]", "values": [{"measurement": "MIC", "setting": "[1]; read-out: Mtb MIC (ug/mL)", "value": 400, "unit": "µg/mL"}]}, {"compound": "CCOP(=O)(CCCN(OCc1ccc(OC(F)(F)F)cc1)C(C)=O)OCC", "note": "[GSJ110]", "values": [{"measurement": "MIC", "setting": "[1]; read-out: Mtb MIC (ug/mL)", "value": 400, "unit": "µg/mL"}]}, {"compound": "CCOP(=O)(CCCN(OCc1cc(OC)cc(OC)c1)C(C)=O)OCC", "note": "[GSJ111]", "values": [{"measurement": "MIC", "setting": "[1]; read-out: Mtb MIC (ug/mL)", "value": "> 400", "unit": "µg/mL"}]}, {"compound": "CCOP(=O)(CCCN(OCc1ccc(-c2ccccc2C(=O)OC)cc1)C(C)=O)OCC", "note": "[GSJ112]", "values": [{"measurement": "MIC", "setting": "[1]; read-out: Mtb MIC (ug/mL)", "value": 400, "unit": "µg/mL"}]}, {"compound": "CCOP(=O)(CCCN(OCc1ccc(Br)cc1)C(C)=O)OCC", "note": "[GSJ113]", "values": [{"measurement": "MIC", "setting": "[1]; read-out: Mtb MIC (ug/mL)", "value": 400, "unit": "µg/mL"}]}, {"compound": "CCOP(=O)(CCCN(OCc1ccc(C)cc1)C(C)=O)OCC", "note": "[GSJ114]", "values": [{"measurement": "MIC", "setting": "[1]; read-out: Mtb MIC (ug/mL)", "value": "> 400", "unit": "µg/mL"}]}, {"compound": "CCOP(=O)(CCCN(OCc1cccc(Br)c1)C(C)=O)OCC", "note": "[GSJ115]", "values": [{"measurement": "MIC", "setting": "[1]; read-out: Mtb MIC (ug/mL)", "value": 400, "unit": "µg/mL"}]}, {"compound": "CCOP(=O)(CCCN(OCc1cccc2ccccc12)C(C)=O)OCC", "note": "[GSJ116]", "values": [{"measurement": "MIC", "setting": "[1]; read-out: Mtb MIC (ug/mL)", "value": 400, "unit": "µg/mL"}]}, {"compound": "O=C(CCc1ccccc1)N(O)CCCP(=O)(O)O", "note": "[GSJ 51]", "values": [{"measurement": "MIC", "setting": "[1]; read-out: Mtb MIC (ug/mL)", "value": "> 200", "unit": "µg/mL"}, {"measurement": "IC50", "setting": "[2]; IC50 (uM)", "value": 2.72, "unit": "µM"}, {"measurement": "IC50", "setting": "[2]; IC50 (ug/ml)", "value": 2.92, "unit": "µM"}, {"measurement": "IC50", "setting": "[2]; Mtb Dxr IC50 (ug/mL)", "value": 2.92, "unit": "µM"}]}, {"compound": "O=C(CCCc1ccccc1)N(O)CCCP(=O)(O)O", "note": "[GSJ 52]", "values": [{"measurement": "MIC", "setting": "[1]; read-out: Mtb MIC (ug/mL)", "value": "> 200", "unit": "µg/mL"}, {"measurement": "IC50", "setting": "[2]; IC50 (uM)", "value": 3.12, "unit": "µM"}, {"measurement": "IC50", "setting": "[2]; IC50 (ug/ml)", "value": 3.35, "unit": "µM"}, {"measurement": "IC50", "setting": "[2]; Mtb Dxr IC50 (ug/mL)", "value": 3.35, "unit": "µM"}]}, {"compound": "O=C(Cc1ccccc1)N(O)CCCP(=O)(O)O", "note": "[GSJ 55]", "values": [{"measurement": "MIC", "setting": "[1]; read-out: Mtb MIC (ug/mL)", "value": "> 200", "unit": "µg/mL"}, {"measurement": "IC50", "setting": "[2]; IC50 (uM)", "value": 7.49, "unit": "µM"}, {"measurement": "IC50", "setting": "[2]; IC50 (ug/ml)", "value": 8.09, "unit": "µM"}, {"measurement": "IC50", "setting": "[2]; Mtb Dxr IC50 (ug/mL)", "value": 8.09, "unit": "µM"}]}, {"compound": "O=C(NCCCP(=O)(O)O)c1ccc2ccccc2c1", "note": "[GSJ 56]", "values": [{"measurement": "MIC", "setting": "[1]; read-out: Mtb MIC (ug/mL)", "value": "> 200", "unit": "µg/mL"}, {"measurement": "remaining activity at 100 µg/mL", "setting": "[2]; read-out: Mtb Dxr, value in parentheses (percent enzyme activity remaining)", "value": 90, "unit": "%"}, {"measurement": "remaining activity at 100 µg/mL", "setting": "[2]; read-out: percent enzyme activity remaining at 100 ug/ml compound", "value": 90, "unit": "%"}]}, {"compound": "CC(=O)N(CCCP(=O)(O)O)OC(C)c1ccccc1", "note": "(stereo not shown) [GSJ 63]", "values": [{"measurement": "MIC", "setting": "[1]; read-out: Mtb MIC (ug/mL)", "value": "> 200", "unit": "µg/mL"}, {"measurement": "IC50", "setting": "[2]; IC50 (uM)", "value": 161, "unit": "µM"}, {"measurement": "IC50", "setting": "[2]; IC50 (ug/ml)", "value": 173, "unit": "µM"}, {"measurement": "IC50", "setting": "[2]; Mtb Dxr IC50 (ug/mL)", "value": 173, "unit": "µM"}]}, {"compound": "NNC(=O)c1ccncc1", "note": "[Isoniazid, reference compound]", "values": [{"measurement": "MIC", "setting": "[1]; read-out: MIC 7H9 (μg/mL)", "value": 0.04, "unit": "µg/mL"}, {"measurement": "MIC", "setting": "[1]; read-out: MIC GAST/Fe (μg/mL)", "value": 0.02, "unit": "µg/mL"}]}]}
